Laboratory results as given in US20260060910A1, “COMPOSITION FOR ACTIVATING EXTERNAL BARRIER” (Yuki Gosei Kogyo Co., Ltd., priority 2024, published 2026).

Tested on: miRNA contained in exosomes secreted from C2C12 cells
Conditions: exosomes from β-alanine-treated C2C12 cells vs control; microarray; FIG. 4
Experimental: In this example, miRNAs in exosomes were analyzed by microarray.
The exosome solution purified in Example 2 was used for microarray analysis. The microarray experiment was outsourced to Kamakura Techno Science (Kanagawa, Japan). Based on the data obtained, samples with a ratio of 1.5 or more compared to the control and one of the signal values of two samples exceeding 100 were extracted as miRNAs with altered transcription levels.

NCCC(=O)O [β-alanine]
number of miRNAs decreased: 14 | number of miRNAs increased: six
